Experimental data as given in patent publication US8426598B2, “N-heterocyclic M1 receptor positive allosteric modulators” (Merck, Sharp & Dohme, Corp., priority 2008, dated 2013).

Target: T1, acetylcholine muscarinic M1 receptor (CHOnfat/hM1 cells) (Homo sapiens, UniProt P11229)
T1 construct: expressed in transfected cells; host or cells: CHOnfat cells (CHO, Geneticin selection)
T1 sequence (P11229 1-460): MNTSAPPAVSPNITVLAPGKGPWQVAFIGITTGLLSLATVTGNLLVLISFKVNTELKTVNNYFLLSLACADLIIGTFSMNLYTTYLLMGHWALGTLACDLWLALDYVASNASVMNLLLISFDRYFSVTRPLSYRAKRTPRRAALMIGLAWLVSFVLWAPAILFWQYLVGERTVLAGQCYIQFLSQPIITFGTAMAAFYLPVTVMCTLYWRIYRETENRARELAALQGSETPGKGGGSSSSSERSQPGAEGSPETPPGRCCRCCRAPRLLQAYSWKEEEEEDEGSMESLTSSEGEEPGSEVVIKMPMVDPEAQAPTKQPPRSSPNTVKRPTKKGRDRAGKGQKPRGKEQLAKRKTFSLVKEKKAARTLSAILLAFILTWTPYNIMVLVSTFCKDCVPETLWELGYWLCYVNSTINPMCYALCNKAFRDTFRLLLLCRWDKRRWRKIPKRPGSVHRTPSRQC
Experiment: muscarinic FLIPR assay: intracellular calcium, potentiation of an EC20 concentration of acetylcholine
Type: cell-based
Conditions: FLIPR Ca2+, 4 min preincubation, then EC20 acetylcholine (3 nM final), read-out: IP Value (inflection point)
Experimental: The assay studies the effect of one or several concentrations of test compounds on basal or acetylcholine-stimulated Ca^2+ levels using FLIPR.
Compounds are prepared and subjected to a preincubation period of 4 min. Thereafter, a single EC20 concentration of acetylcholine is added to each well (3 nM final). The intracellular Ca^2+ level of each sample is measured and compared to an acetylcholine control to determine any modulatory activity.
Cells: CHOnfat/hM1, hM2, hM3 or hM4 cells are plated 24 hr before the assay at a density of 18,000 cells/well (100 μL) in a 384 well plate. CHOnfat/hM1 and CHOnfat/hM3 Growth Medium: 90% DMEM (Hi Glucose); 10% HI FBS; 2 mM L-glutamine; 0.1 mM NEAA; Pen-Strep; and 1 mg/ml Geneticin, are added. For M2Gqi5CHOnfat and M4Gqi5CHOnfat cells, an additional 600 μg/ml hygromycin is added.
Equipment: 384 well plate, 120 μL addition plate; 96-well Whatman 2 ml Uniplate Incubator, 37° C., 5% CO2; Skatron EMBLA-384 Plate Washer; Multimek Pipetting System; Genesis Freedom 200 System; Mosquito System; Temo Nanolitre Pipetting System; and FLIPR^384 Fluorometric Imaging Plate Reader System are used.
Buffers. Assay Buffer: Hanks Balanced Salt Solution, with 20 mM Hepes, 2.5 mM Probenecid (Sigma P-8761) first dissolved in 1 N aqueous NaOH, 1% Bovine Serum Albumin (Sigma A-9647). Dye Loading Buffer: Assay Buffer plus 1% Fetal Bovine Serum and Fluo-4AM/Pluronic Acid Mixture. 2 mM Fluo-4AM ester stock in DMSO (Molecular Probes F-14202) Concentration of 2 μM in buffer for a final concentration of 1 μM in Assay. 20% Pluronic Acid Solution stock, with a concentration of 0.04% in Buffer, 0.02% in Assay.
65 μL of 2 mM Fluo-4AM are mixed with 130 μL of 20% Pluronic Acid. The resulting solution and 650 μL FBS is added to the assay buffer for a total volume of 65 mL. Positive Controls: 4-Br-A23187: 10 mM in DMSO; final concentration 10 μM. Acetylcholine: 10 mM in water, working stock at both 20 μM and 30 μM in assay buffer, final concentration of 10 μM. This is used to check the maximum stimulation of the CHOK1/hM1 cells. 20 μM (2×) acetylcholine is added in the preincubation part of the assay, and the 30 μM (3×) stock is added in the second part. (EC20)Acetylcholine: 10 mM in water, working stock of 9 nM (3×), and final concentration in assay is 3 nM. This is used after the preincubation with test compounds. Addition of the EC20 Acetylcholine to each well with a test compound will ascertain any modulator activity. 24 wells contain 3 nM Acetylcholine alone as a control.
Screening Plate: Compounds are titrated in 96-well plates (columns 2-11), 100% DMSO, started at a concentration of 15 mM (150× stock concentration), and 3-fold serial dilutions using Genesis Freedom200 System. Four 96-well plates are combined into a 384-well plate using Mosquito Nanolitre Pipetting System by transferring 1 μl of serial diluted compounds to each well, and 1 mM acetylcholine (100× stock concentration) were added as a control. Using Temo, 49 μl assay buffer is added to each well of the 384-well plate right before assay.
In a 96-well Whatman 2 ml Uniplate, 9 nM Acetylcholine (3×) is pipetted into wells corresponding to the screening compounds and into control wells. The 30 μM acetylcholine control (3×) is added into control wells and the 3× agonist plate is transferred into a 384-well plate.
Cells are washed three times with 100 μL of buffer, leaving 30 μL of buffer in each well. Using Multimek, 30 μL of Dye Loading Buffer is added into each well and incubated at 37° C., 5% CO2 for up to one hr.
After 60 min, the cells are washed three times with 100 μL of buffer, leaving 30 μL of buffer in each well. The cell plate, screening plate, and agonist addition plates are placed on the platform in the FLIPR and the door is closed. A signal test to check background fluorescence and basal fluorescence signal is performed. Laser intensity is adjusted if necessary. […]

Compound	EC50
O=C(O)c1cn(Cc2ccc(-n3cccn3)cc2)c2c(F)ccc(F)c2c1=O [Example 1]	261 nM
O=C(O)c1cn(Cc2ccc(N3CCCC3=O)cc2)c2cccc(F)c2c1=O [Example 3, 5-Fluoro-4-oxo-1-[4-(2-oxopyrrolidin-1-yl)benzyl]-1,4-dihydroquinoline-3-carboxylic acid]	2500 nM
CC(C)C(=O)Nc1ccc(Cn2cc(C(=O)O)c(=O)c3c(F)cccc32)cc1 [Example 4, 5-Fluoro-1-[4-(isobutyrylamino)benzyl]-4-oxo-1,4-dihydroquinoline-3-carboxylic acid]	308 nM
O=C(O)c1cn(Cc2ccc(-n3cnc4ccccc43)cc2)c2c(F)ccc(F)c2c1=O [Example 2]	58 nM
C=Cc1cnn(-c2ccc(Cn3cc(C(=O)OCC)c(=O)c4c(F)cccc43)cc2)c1 [Example 156, Ethyl 5-fluoro-4-oxo-1-[4-(4-vinyl-1H-pyrazol-1-yl)benzyl]-1,4-dihydroquinoline-3-carboxylate]	25 nM
O=C(O)c1cn(Cc2ccc(-n3cnc(-c4ccccc4)c3)cc2)c2cccc(F)c2c1=O [Example 31]	40 nM
O=C(O)c1cn(Cc2ccc(-n3cc(CO)cn3)cc2)c2cccc(F)c2c1=O [Example 59]	39 nM
Cc1nccn1-c1ccc(Cn2cc(C(=O)O)c(=O)c3cccc(F)c32)c(F)c1 [Example 109]	181 nM
CC(=O)c1cn(-c2ccc(Cn3cc(C(=O)O)c(=O)c4cccc(F)c43)c(F)c2)c2ccccc12 [Example 120]	45 nM
O=C(O)c1cn(Cc2ccc(-n3ccc(CF)n3)cc2)c2cccc(F)c2c1=O [Example 152, 5-Fluoro-1-{4-[3-(fluoromethyl)-1H-pyrazol-1-yl]benzyl}-4-oxo-1,4-dihydroquinoline-3-carboxylic acid]	41 nM
O=C(O)c1cn(Cc2ccc(-n3ccc4ncccc43)cc2)c2cccc(F)c2c1=O [Example 36]	40 nM
O=C(O)c1cn(Cc2ccc(-n3cc(CCO)cn3)cc2)c2cccc(F)c2c1=O [Example 19]	32 nM
CCOC(=O)c1cn(Cc2ccc(-n3ccc(C(F)F)n3)cc2)c2cccc(F)c2c1=O [Example 153, Ethyl 1-{4-[3-(difluoromethyl)-1H-pyrazol-1-yl]benzyl}-5-fluoro-4-oxo-1,4-dihydroquinoline-3-carboxylate]	749 nM
CCOC(=O)c1cn(Cc2ccc(-n3cc(C#N)cn3)cc2)c2cccc(F)c2c1=O [Example 155, Ethyl 1-[4-(4-cyano-1H-pyrazol-1-yl)benzyl]-5-fluoro-4-oxo-1,4-dihydroquinoline-3-carboxylate]	378 nM
CNc1ccc(Cn2cc(C(=O)O)c(=O)c3c(F)cccc32)cc1 [Example 149, 5-Fluoro-1-[4-(methylamino)benzyl]-4-oxo-1,4-dihydroquinoline-3-carboxylic acid]	749 nM
CN(C)c1ccc(Cn2cc(C(=O)O)c(=O)c3c(F)cccc32)cc1 [Example 150, 1-[4-(dimethylamino)benzyl]-5-fluoro-4-oxo-1,4-dihydroquinoline-3-carboxylic acid]	1070 nM
O=C(O)c1cn(Cc2ccc(-n3ncc4ccccc43)cc2F)c2c(F)cccc2c1=O [Example 112]	97 nM
O=C(O)c1cn(Cc2ccc(-n3ccnc3)cc2)c2cccc(F)c2c1=O [Example 6]	102 nM
O=C(O)c1cn(Cc2ccc(-n3cc(CF)cn3)cc2)c2cccc(F)c2c1=O [Example 62]	31 nM
CCOC(=O)c1cn(Cc2ccc(-n3ccc(C(C)O)n3)cc2)c2cccc(F)c2c1=O (centres unmarked) [Example 151, Ethyl 5-fluoro-1-{4-[3-(1-hydroxyethyl)-1H-pyrazol-1-yl]benzyl}-4-oxo-1,4-dihydroquinolin-3-carboxylate]	78 nM
